# Measurements from patent US20160237160A1, “ANTI-TWEAKR ANTIBODIES AND USES THEREOF” (BAYER PHARMA AKTIENGESELLSCHAFT, priority 2013, published 2016).
# Legend:
# [1] = test system: SCaBER xenograft (bladder cancer), NMRI nude mice; experiment: Xenograft anti-tumor efficacy; assay type: in vivo; conditions: final tumor weight, TPP-2090 10 mg/kg twice weekly for 4 weeks
# [2] = test system: Ku-19-19 xenograft (bladder cancer); experiment: Xenograft anti-tumor efficacy; assay type: in vivo, mice; conditions: final tumor weight, TPP-2090 10 mg/kg twice weekly for 4 weeks
# Experimental: (§1) After tumor growth to a size of approximately 40 mm^2 mice were randomized into control and treatment groups with a respective group size of n=8-10. Mice were treated with various doses of anti-TWEAKR antibodies diluted in PBS by intravenous injection (i.v.) into the tail vein with a twice per week schedule (q4dx3: applications twice per week, three applications in total; q4dx8: applications twice per week, eight applications in total). Combination therapy partners such as Regorafenib (10 mg/kg daily, per os) and the PI3K-inhibitor 1 (10 mg/kg, BID, 2d on, 5d off (applications twice daily on two consecutive days, followed by five days without treatment), i.v.) were diluted in their respective formulations whereas the standard of care therapies Irinotecan (5 mg/kg, 4d on, 3d off (applications once daily on four consecutive days followed by three days without treatment) i.v.) and Paclitaxel (16 mg/kg, q7dx4 (applications once per week, four applications in total), i.v.) were diluted in 0.9% NaCl. Animals injected with PBS served as the control (vehicle) group. The applied volume of the compounds was 5 ml/kg body weight per mouse.
# (§2) Tumor growth was monitored 2-3 times per week by caliper measurement (length×width in mm) as well as body weight (in g). […]
# [3] = test system: BXF1228 patient-derived bladder cancer model; experiment: Xenograft anti-tumor efficacy; assay type: in vivo, mice; conditions: final tumor weight, TPP-2090 10 mg/kg twice weekly for 4 weeks
# [4] = test system: BXF1352 patient-derived bladder cancer model; experiment: Xenograft anti-tumor efficacy; assay type: in vivo, mice; conditions: final tumor weight, TPP-2090 10 mg/kg twice weekly for 4 weeks
# Experimental: as §1, §2
# [5] = test system: Co5896 patient-derived colorectal cancer model; experiment: Xenograft anti-tumor efficacy; assay type: in vivo, mice; conditions: tumor weight, TPP-2090 10 mg/kg twice weekly for 4 weeks
# Experimental: as §1
# (§3) Tumor growth was monitored 2-3 times per week by caliper measurement (length×width in mm) as well as body weight (in g). At the end of study tumors were dissected, weighted and used for the calculation of tumor-to-control (T/C) ratios (mean tumor weight of treated animals divided by mean tumor weight of control/vehicle animals). […] 2×10^6 tumor cells in 100% Matrigel were s.c. inoculated in female nude mice. After 7d established tumors with a size of about 40 mm^2 were treated with 0.3 mg/kg, 1 mg/kg and 3 mg/kg of antibodies (i.v., q4dx3: applications twice per week, three applications in total).
# (§4) Animal studies were conducted as described in example 8 for further human colorectal cancer tumor cell lines Colo205 and LoVo and for further human colorectal cancer patient-derived models Co7553, Co5896, Co5676, Co5841, CXF 1103 and CXF 533. […] The formulation of regorafenib is described in example 8.
# [6] = test system: Colo205 xenograft (colorectal cancer); experiment: Xenograft anti-tumor efficacy; assay type: in vivo, mice; conditions: tumor weight, TPP-2090 10 mg/kg twice weekly for 4 weeks
# Experimental: as §1, §3, §4
# [7] = test system: LoVo xenograft (colorectal cancer); experiment: Xenograft anti-tumor efficacy; assay type: in vivo, mice; conditions: tumor weight, TPP-2090 10 mg/kg twice weekly for 4 weeks
# Experimental: as §1, §3, §4
# [8] = target: T1, TWEAKR protein (TPP-2305) (Homo sapiens, UniProt Q9NP84); experiment: Biacore monovalent KD with TWEAKR protein; assay type: binding
# T1 construct: TPP-2305; hTNFRSF12Aaa28-80; Human; 30R-AT080; 168; purchased Fitzgerald Inc 30R-AT080
# Experimental: Binding affinities of anti-TWEAKR antibodies were determined by surface plasmon resonance analysis on a Biacore T100 instrument (GE Healthcare Biacore, Inc.). Antibodies were immobilized onto a CM5 sensor chip through an indirect capturing reagent, anti-human IgG(Fc). Reagents from the “Human Antibody Capture Kit” (BR-1008-39, GE Healthcare Biacore, Inc.) were used as described by the manufacturer. Anti-TWEAKR antibodies were injected at a concentration of 10 μg/ml at 10 μl/min for 10 sec.
# Sensorgrams were generated after in-line reference cell correction followed by buffer sample subtraction. The dissociation equilibrium constant (KD) was calculated based on the ratio of association (kon) and dissociation rated (koff) constants, obtained by fitting sensorgrams with a first order 1:1 binding model.
# 786-O cells [9] = experiment: FACS binding to cell surface; design: species or system human; conditions: 10 μg/ml
# Experimental: (§5) To determine the binding characteristics of the anti-TWEAKR antibodies on mouse and human cancer cell lines, binding was tested by flow cytometry to a panel of cell lines. Adherent cells were washed twice with PBS without Ca and Mg (Biochrom #L1825: aqueous solution containing 8000 mg/l NaCl, 200 mg/l KCl, 1150 mg/l Na2HPO4, and 200 mg/l KH2PO4) and detached by enzyme-free PBS based cell dissociation buffer (Invitrogen). Cells were suspended at approximately 10^5 cells/well in FACS buffer (PBS without Ca/Mg, containing 3% FCS, Biochrom). Cells were centrifuged (250 g, 5 min, 4° C.) and supernatant discarded. Cells were resuspended in dilutions of the antibodies of interest (10 μg/ml in 80 μl if not indicated otherwise) in FACS buffer, and incubated on ice for 1 h. In the following cells were washed once with 1000 cold FACS buffer and 80 μl secondary antibody diluted at 1:150 (PE goat anti-human IgG, Dianova #109-115-098, or PE Goat Anti-Mouse IgG, Jackson Immuno Research #115-115-164) was added. After incubation for 1 h on ice cells were again washed with cold FACS buffer, resuspended in 1000 FACS buffer and analyzed by flow cytometry using a FACS-Array (BD Biosciences). Results are calculated as Geo Mean of fluorescence detected by the antibody of interest subtracted by background fluorescence as measured by detection with the secondary antibody alone. Values are scored according to the following system: Geo Mean−Geo Mean of secondary antibody alone >10: +, >100: ++, >1000: +++, 10000: ++++, close to category border in ( ).
# A375 cells [10] = experiment: FACS binding to cell surface; design: species or system human; conditions: 10 μg/ml
# Experimental: as §5
# HT-29 cells [11] = experiment: FACS binding to cell surface; design: species or system human; conditions: HT29; 10 μg/ml
# Experimental: as §5
# NCI-H322 cells = experiment: FACS binding to cell surface; design: species or system human; conditions: 10 μg/ml
# Experimental: as §5
# SK-OV-3 cells = experiment: FACS binding to cell surface; design: species or system human; conditions: SKOV-3; 10 μg/ml
# Experimental: as §5
# WiDr cells [12] = experiment: FACS binding to cell surface; design: species or system human; conditions: 10 μg/ml
# Experimental: as §5
# 786-O cells [13] = experiment: Inhibition of proliferation (Cell Titer Glo); assay type: cell-based, human; conditions: 96h, 100 μg/ml antibody or *100 ng/ml TWEAK
# Experimental: (§6) Therefore cells were plated in 96well plates in 750 assay medium (growth media from Table 21, plus 100 ng/ml IFN gamma for 786-O cells) at the following cell numbers: WiDr cells 3000 cells/well, 786-O cells 2500 cells/well. 24 h later cells were incubated with anti-TWEAKR antibodies (see Table 26), recombinant human TWEAK or isotype control IgG (not shown) at the indicated concentrations (antibodies from 0.03-300 μg/ml, TWEAK 100 or 300 ng/ml). At the time of antibody addition cell viability was determined in sister plates (time point zero): therefore 750/well CTG solution (Promega Cell Titer Glo solution (catalog # G755B and G756B) was added to the cells, incubated for 10 minutes and luminescence was read on a Victor V (Perkin Elmer). 96 h after incubation with the agents, cell viability was determined in the assay plates by addition of 100 μl/well CTG solution, 10 min incubation and reading of luminescence. Proliferation in control wells was calculated by subtracting time zero values from the luminescence values in the untreated control wells. % of cell proliferation was calculated in the compound treated wells as compared to the untreated control wells.
# (§7) To evaluate, whether this strong anti-proliferative activity can also be observed in a broader cell panel, in addition LOVO, NCI-H1975, SW-480 (all 3000 cells/well), HT-29 (4000 cells/well), A253 and SK-OV3 (both 2500 cells/well) cells were incubated with 100 μg/ml anti-TWEAKR antibodies or TWEAK ligand for the time periods as indicated in Table 27. All cells were seeded in the growth media indicated in Table 21 and for all cells except for WiDr cells 100 ng/ml IFNgamma was added to the assay medium when seeding the cells. The percentage of growth inhibition for treated cells as compared to proliferation in untreated control cells was measured and calculated as described above. As shown in Table 27 the antibodies of the current invention are more efficacious as compared to other known antibodies in inhibiting proliferation of various cancer cell lines at 100 μg/ml. In most experiments the antibodies of the current invention also show equal or stronger efficacy as compared to 100-300 ng/ml TWEAK ligand. Thus, the antibodies described in this invention are unique in their activity to induce apoptosis and proliferation inhibition in a broad panel of cancer cell lines.
# A253 cells = experiment: Inhibition of proliferation (Cell Titer Glo); assay type: cell-based, human; conditions: 72h, 100 μg/ml antibody or **300 ng/ml TWEAK
# Experimental: as §6, §7
# HT-29 cells [14] = experiment: Inhibition of proliferation (Cell Titer Glo); assay type: cell-based, human; conditions: 24h, 100 μg/ml antibody or **300 ng/ml TWEAK
# Experimental: as §6, §7
# Lovo cells = experiment: Inhibition of proliferation (Cell Titer Glo); assay type: cell-based, human; conditions: 72h, 100 μg/ml antibody or *100 ng/ml TWEAK
# Experimental: as §6, §7
# NCI-H1975 cells = experiment: Inhibition of proliferation (Cell Titer Glo); assay type: cell-based, human; conditions: 72h, 100 μg/ml antibody or *100 ng/ml TWEAK
# Experimental: as §6, §7
# SK-OV3 cells = experiment: Inhibition of proliferation (Cell Titer Glo); assay type: cell-based, human; conditions: 96h, 100 μg/ml antibody
# Experimental: as §6, §7
# SW480 cells = experiment: Inhibition of proliferation (Cell Titer Glo); assay type: cell-based, human; conditions: 72h, 100 μg/ml antibody or *100 ng/ml TWEAK
# Experimental: as §6, §7
# WiDr cells [15] = experiment: Inhibition of proliferation (Cell Titer Glo); assay type: cell-based, human; conditions: 96h, 100 μg/ml antibody, no IFN gamma
# Experimental: All cells were seeded in the growth media indicated in Table 21 and for all cells except for WiDr cells 100 ng/ml IFNgamma was added to the assay medium when seeding the cells. […]
# A375 cells [16] = experiment: IL-8 secretion ELISA; assay type: cell-based, human; conditions: 100 μg/ml, 24 h
# Experimental: Therefore A375 cells were plated at 2500 cells/well in 96well plates in growth medium DMEM (Biochrom;# FG 0435, with stable Glutamin), 10% FCS. 24 h later cells were incubated with anti-TWEAKR antibodies, recombinant human TWEAK at various concentrations as indicated or corresponding isotype control IgG. 24 h after start of the incubation with the antibodies, cell supernatant or dilutions thereof were added to the Capture Elisa Plate of the human CXCL8/IL-8 ELISA Kit (R&D Systems DY208) and incubated over night at 4° C. by shaking 300 rpm. On the next day, samples were analyzed by using the human CXCL8/IL-8-ELISA Kit (R&D Systems DY208) according to the manufacturer's instructions. Optical density was measured at 450 nm (Tecan Spectra, Rainbow) together with background correction. To calculate absolute levels of IL-8 a standard curve using recombinant human IL-8 protein was applied according to the manufacturer's recommendations (R&D Systems).
# TWEAKR = TWEAKR (Homo sapiens, UniProt Q9NP84); conditions: published data; read-out: KD / binding affinity to TWEAKR (published); cited from earlier work
compound,measurement,setting,value
"Nc1ccn([C@@H]2O[C@H](CO)[C@@H](O)C2(F)F)c(=O)n1 [Gemcitabine, gemcitabine, reference compound]",T/C,[1],0.85
same,T/C,[2],0.07
same,T/C,[3],0.93
"N.N.[Cl][Pt][Cl] [Oxaliplatin/Cisplatin, cisplatin, reference compound]",T/C,[1],1.22
same,T/C,[4],0.85
same,T/C,[3],0.84
CNC(=O)c1cc(Oc2ccc(NC(=O)Nc3ccc(Cl)c(C(F)(F)F)c3)c(F)c2)ccn1 [Regorafenib],Final T/C,[5],0.67
same,Final T/C,[6],0.42
same,Final T/C,[7],0.63
"PDL-192(TPP-1104): reference agonistic anti-TWEAKR antibody, human IgG1, variable domains from WO2009/020933; SEQ ID NO 127/128 [reference compound]",ka,[8]; first order 1:1 binding model,1e+07 M⁻¹ s⁻¹
same,kd,[8]; first order 1:1 binding model,0.038 s⁻¹
same,Kd,[8]; monovalent KD,3.7 nM
same,GeoMean of Fluorescence minus GeoMean with the secondary antibody only,786-O cells [9],25283
same,GeoMean of Fluorescence minus GeoMean with the secondary antibody only,A375 cells [10],865
same,GeoMean of Fluorescence minus GeoMean with the secondary antibody only,HT-29 cells [11],2127
same,GeoMean of Fluorescence minus GeoMean with the secondary antibody only,NCI-H322 cells,330
same,GeoMean of Fluorescence minus GeoMean with the secondary antibody only,SK-OV-3 cells,4053
same,GeoMean of Fluorescence minus GeoMean with the secondary antibody only,WiDr cells [12],3563
same,% Inhibition of proliferation,786-O cells [13],41%
same,% Inhibition of proliferation,A253 cells,87%
same,% Inhibition of proliferation,HT-29 cells [14],62%
same,% Inhibition of proliferation,Lovo cells,49%
same,% Inhibition of proliferation,NCI-H1975 cells,46%
same,% Inhibition of proliferation,SK-OV3 cells,44%
same,% Inhibition of proliferation,SW480 cells,27%
same,% Inhibition of proliferation,WiDr cells [15],12%
same,"IL-8 release, % of the activation as compared to 300 ng/ml TWEAK ligand",A375 cells [16],66%
same,Kd,TWEAKR,5.5 nM
